Test results published in US20250333682A1, “DYNAMIC HYDROGEL AND PULMONARY FIBROSIS BIONIC CHIP” (Anivance AI Corporation, priority 2024, published 2025).

System: HFL-1 cells
Test: antifibrotic drug efficacy model on lung fibrosis bionic chip, immunofluorescence staining
Type: cell-based, human
Details: TGF-β-induced HFL-1 on dynamic hydrogel with laser dynamic response
Experimental: Using the dynamic hydrogel obtained from different crosslinking times as the cell culture substrate for fibrosis models (human fetal lung fibroblasts, HFL-1), the expression of α-SMA protein is used as an indicator of myofibroblast differentiation. After culturing the HFL-1 cells for one day, 10 ng/ml of TGF-β is added to stimulate the cells as a control group for α-SMA expression. After two days of culture, a laser device is used to irradiate the cells for 24 hours at frequencies of 0.2 Hz (On-1.5 s/Off-3.5 s) and 0.3 Hz ([…]), respectively. The cells are then fixed and stained for observation. In FIG. 11, “10 min” and “25 min” indicate the fluorescence images of the dynamic hydrogel 5 obtained by UV irradiation for 10 minutes and 25 minutes, respectively.
Furthermore, since ECM remodeling in lung fibrosis patients leads to tissue stiffness, and stiff substrates apply mechanical stress to cells, the activity of YAP occurs through nuclear translocation, with YAP cellular localization depending on mechanical stress. Therefore, HFL-1 cells are cultured in dynamic hydrogels of different hardness (simulating substrates of varying stiffness) and dynamic response environments with laser frequencies to evaluate the effects of substrate hardness and dynamic response on the localization of YAP in lung fibroblasts. […]

## Cc1ccc(=O)n(-c2ccccc2)c1 [pirfenidone]
Pirfenidone 5.3 mM, two days drug, FIG. 13(a)
  expression of the fibrotic marker α-SMA: inhibited
pirfenidone, FIG. 13(b)
  inhibiting the mechanical response marker YAP: less significant effect
